What was measured:
Assay type in all cases: functional, cell-based
MCF7 = assay: Antiproliferative activity against human MCF7 cells after 48 to 72 hrs by Alamar blue assay
MDA-MB-231 = assay: Antiproliferative activity against human MDA-MB-231 cells after 48 to 72 hrs by Alamar blue assay
RKO = assay: Antiproliferative activity against human RKO cells after 48 to 72 hrs by Alamar blue assay
[1] = Antiproliferative activity against human SF295 cells after 48 to 72 hrs by Alamar blue assay; conditions: SF-295

| SMILES | IC50 (MCF7) [nM] | IC50 (MDA-MB-231) [nM] | IC50 (RKO) [nM] | IC50 [1] [nM] |
| --- | --- | --- | --- | --- |
| CC(=O)N[C@H](C)[C@@H](O)[C@@H](C)[C@@H]1OC(=O)/C=C/C=C(C)\C=C\[C@]2(C)CCC=C[C@@H]2/C=C(C)/C=C/[C@H]1C | 36.5 | 63 | 214 | 63.5 |
| CC(=O)N[C@H](C)[C@@H](O)[C@@H](C)[C@@H]1OC(=O)/C=C/C=C(C)/C=C/[C@]2(C)CCC=C[C@@H]2/C=C(C)/C=C/[C@H]1C | 376 | 384 | 1070 | 611 |
| CC(=O)N[C@H](C)[C@@H](O)[C@@H](C)[C@@H]1OC(=O)CC/C=C(C)\C=C\[C@]2(C)CCC=C[C@@H]2/C=C(C)/C=C/[C@H]1C | > 5000 | > 5000 | > 5000 | > 5000 |
